Data reported in paper PMC7576493, “Novel ANO1 Inhibitor from Mallotus apelta Extract Exerts Anticancer Activity through Downregulation of ANO1” (International Journal of Molecular Sciences, 2020).

Columns and labels:
Anoctamin1 (ANO1) [1] = molecular target: T1, Anoctamin1 (ANO1) (Homo sapiens, UniProt Q5XXA6); test: apical membrane (short-circuit) current in FRT cells expressing human ANO1; also YFP quenching assay; type: cell-based
T1 sequence (Q5XXA6 1-986): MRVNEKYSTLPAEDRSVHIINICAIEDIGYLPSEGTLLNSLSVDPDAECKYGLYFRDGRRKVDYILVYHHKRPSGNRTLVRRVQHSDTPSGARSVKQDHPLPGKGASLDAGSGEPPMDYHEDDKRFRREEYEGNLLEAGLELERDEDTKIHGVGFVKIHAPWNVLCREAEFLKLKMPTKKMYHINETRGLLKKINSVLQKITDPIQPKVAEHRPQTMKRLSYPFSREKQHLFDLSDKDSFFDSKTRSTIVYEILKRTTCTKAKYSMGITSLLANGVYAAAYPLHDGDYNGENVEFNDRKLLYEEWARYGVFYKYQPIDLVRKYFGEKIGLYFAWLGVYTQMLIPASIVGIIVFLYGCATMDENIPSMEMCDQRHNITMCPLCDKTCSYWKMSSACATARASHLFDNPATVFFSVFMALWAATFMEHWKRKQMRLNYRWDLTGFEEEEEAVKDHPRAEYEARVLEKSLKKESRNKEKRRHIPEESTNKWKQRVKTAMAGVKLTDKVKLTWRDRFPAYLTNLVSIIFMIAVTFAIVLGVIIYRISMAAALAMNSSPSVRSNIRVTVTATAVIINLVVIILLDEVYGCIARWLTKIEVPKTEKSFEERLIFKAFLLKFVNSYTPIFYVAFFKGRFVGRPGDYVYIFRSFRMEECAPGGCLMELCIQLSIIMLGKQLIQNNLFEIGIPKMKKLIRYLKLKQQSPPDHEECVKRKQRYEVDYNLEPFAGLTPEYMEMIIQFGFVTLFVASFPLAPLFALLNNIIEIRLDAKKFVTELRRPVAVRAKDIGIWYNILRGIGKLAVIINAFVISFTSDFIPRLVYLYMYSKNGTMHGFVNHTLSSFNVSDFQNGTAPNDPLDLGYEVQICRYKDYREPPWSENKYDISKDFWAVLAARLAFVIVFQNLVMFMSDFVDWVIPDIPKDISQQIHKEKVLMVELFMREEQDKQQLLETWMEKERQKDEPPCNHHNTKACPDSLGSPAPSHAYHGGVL

Anoctamin1 (ANO1) [2] = molecular target: T1, Anoctamin1 (ANO1); test: YFP (F46L/H148Q/I152L) quenching iodide influx assay in FRT cells expressing human ANO1; […] inhibition at […]; type: cell-based

IC50 (Anoctamin1 (ANO1) [1])	inhibition at 25 µM (Anoctamin1 (ANO1) [2])	SMILES
2640 nM	–	COc1cc2c(c(OC)c1C(=O)CC(O)c1ccccc1)C=CC(C)(C)O2 (racemic) [compound 2, Ani-D2]
–	> 99%	COc1cc2c(c(OC)c1C(=O)/C=C/c1ccccc1)C=CC(C)(C)O2 [compound 1, Ani-D1]
